The record followed here is ChEMBL document CHEMBL5335827, “Divergent Biosynthesis of Bridged Polycyclic Sesquiterpenoids by a Minimal Fungal Biosynthetic Gene Cluster” (J Nat Prod, 2024).

As usually defined, the IC50 is the concentration that inhibits the measured activity by half.

Calls of active or inactive are those of the source. The calls are words filed in the database; no cut-off is given here.

The test system of one test is HepG2. Put plainly: Cytotoxicity against human HepG2 cells at 20 uM by CCK8 assay. Type of test: functional, cell-based.
For the compound `C=C1[C@H](CO)C2[C@@H]([C@H](C)CO)CC[C@]1(C)[C@H]2CO`, the outcome was inactive.

Consider `CC1(C)CCC[C@]2(C)C(CO)=CC1[C@H]2CCO`, for which the outcome was inactive.

`C=C1[C@@H]2C(O)C(O)[C@H]3[C@@H]2[C@@H](C(C)C)CC[C@@]13CO` (stereo partly specified): the outcome was inactive.

As for `CC(=O)/C=C/[C@H]1[C@H]2C(C=O)=C(C)[C@]1(C)CC[C@@H]2C(C)C`, the outcome was inactive.

For the compound `C=C1C2C3[C@@H](C[C@@H]2O)[C@]1(C)CC[C@H](O)C3(C)C`, the outcome was inactive.

As for `C=C1C2C3[C@@H](C[C@@H]2O)[C@]1(C)C(=O)CCC3(C)C`, the outcome was inactive.

In the case of `C=C1C2C3[C@@H](C[C@@H]2O)[C@]1(C)[C@H](O)CCC3(C)C`, the outcome was inactive.

Turning to `C=C1C2C(=O)C[C@@H]3C2C(C)(C)CCC[C@]13CO`, the result was inactive.

Turning to `C=C1[C@H]([C@@H]2C[C@H](O)C(=O)O2)[C@H]2[C@@H](C(C)C)CC[C@]1(C)[C@H]2CO`, the result was inactive.

Take `CC(C)[C@H]1CC[C@]2(CO)C(C)[C@@H]3C(O)C(O)[C@H]2C13` (mixture of isomers): the result was inactive.

Take `C=C1C2C(=O)C[C@@H]3C2C(C)(C)CC[C@H](O)[C@]13C`: the result was inactive.

For `C=C1[C@@H]2OC[C@H]3[C@@H]([C@H]2O)[C@@H](C(C)C)CC[C@@]13C`, the result was inactive.

Turning to `CC(C)[C@H]1CC[C@]2(C)[C@H]3CO[C@]2(CO)C=C[C@@H]13`, the outcome was inactive.

In the case of `C=C1CC2[C@@H](C(C)C)CC[C@]1(C)[C@H]2C(O)CO` (stereo partly specified), the result was inactive.

For the compound `C=C1C2C3[C@@H](C[C@@H]2O)[C@]1(C)CCC[C@@]3(C)CO`, the outcome was inactive.

Another test concerns LoVo. Nature of the test: Cytotoxicity against human LoVo cells at 20 uM by CCK8 assay. Type of test: functional, cell-based. A general note: Tetrazolium dyes change colour on reduction, which living cells bring about.
Turning to `C=C1[C@H](CO)C2[C@@H]([C@H](C)CO)CC[C@]1(C)[C@H]2CO`, the outcome was inactive.

With `CC1(C)CCC[C@]2(C)C(CO)=CC1[C@H]2CCO`, the result was inactive.

On to `C=C1[C@@H]2C(O)C(O)[C@H]3[C@@H]2[C@@H](C(C)C)CC[C@@]13CO` (stereo partly specified), for which the result was inactive.

On to `CC(=O)/C=C/[C@H]1[C@H]2C(C=O)=C(C)[C@]1(C)CC[C@@H]2C(C)C`, for which the result was inactive.

As for `C=C1C2C3[C@@H](C[C@@H]2O)[C@]1(C)CC[C@H](O)C3(C)C`, the result was inactive.

On to `C=C1C2C3[C@@H](C[C@@H]2O)[C@]1(C)C(=O)CCC3(C)C`, for which the outcome was inactive.

For the compound `C=C1C2C3[C@@H](C[C@@H]2O)[C@]1(C)[C@H](O)CCC3(C)C`, the result was inactive.

In the case of `C=C1C2C(=O)C[C@@H]3C2C(C)(C)CCC[C@]13CO`, the result was inactive.

`C=C1[C@H]([C@@H]2C[C@H](O)C(=O)O2)[C@H]2[C@@H](C(C)C)CC[C@]1(C)[C@H]2CO`: the outcome was inactive.

On to `CC(C)[C@H]1CC[C@]2(CO)C(C)[C@@H]3C(O)C(O)[C@H]2C13` (mixture of isomers), for which the outcome was inactive.

With `C=C1C2C(=O)C[C@@H]3C2C(C)(C)CC[C@H](O)[C@]13C`, the outcome was inactive.

On to `C=C1[C@@H]2OC[C@H]3[C@@H]([C@H]2O)[C@@H](C(C)C)CC[C@@]13C`, for which the outcome was inactive.

`CC(C)[C@H]1CC[C@]2(C)[C@H]3CO[C@]2(CO)C=C[C@@H]13`: the outcome was inactive.

`C=C1CC2[C@@H](C(C)C)CC[C@]1(C)[C@H]2C(O)CO` (stereo partly specified): the outcome was inactive.

On to `C=C1C2C3[C@@H](C[C@@H]2O)[C@]1(C)CCC[C@@]3(C)CO`, for which the result was inactive.

A further test concerns RAW264.7. Nature of the test: Anti-inflammatory activity against mouse RAW264.7 cells assessed as inhibition of LPS-induced NO release by Griess assay. The format is functional, cell-based. A general note: The Griess reaction detects nitrite, a stable product of nitric oxide.
Regarding `CC(=O)/C=C/[C@H]1[C@H]2C(C=O)=C(C)[C@]1(C)CC[C@@H]2C(C)C`, the IC50 amounted to 3.9 µM.
